Laboratory results: publication PMC6697720, “Saturation of acyl chains converts cardiolipin from an antagonist to an activator of Toll-like receptor-4” (Cellular and Molecular Life Sciences: CMLS, 2019)
pIC50: −log10 of the molar value.

How the values were obtained:
human TLR4/MD2/CD14 = target: T1, human TLR4/MD2/CD14 (Homo sapiens, UniProt O00206+Q9Y6Y9); assay: Inhibition of LPS-induced NF-κB luciferase reporter in HEK293 cells transfected with human TLR4/MD2/CD14; type: cell-based; details: for inhibition of LPS-induced signaling (LPS dose-response, 0 to 1000 ng/mL), mode of action: 1 h CL pre-incubation
T1 construct: expressed in transfected cells; host or cells: HEK293 (ATCC CRL1573), transient transfection with jetPEI
Method: (§1) Cells were seeded at 4 × 10^4 cells/mL in 96-well plates (200 μL/well) and transiently transfected 4 days later. Expression vectors containing an NF-κB transcription reporter vector-encoding firefly luciferase (10 ng/well pNF-κB-luc from Clontech), and a constitutively active reporter vector-encoding Renilla luciferase (5 ng/well phRG-TK; Promega), together with empty vector (pcDNA3.1 from Invitrogen Cat. N. V79020) and cDNA encoding human membrane CD14 (3 ng/well) and human or murine TLR4 and MD2 (3 ng/well) were mixed with jetPEI (Polyplus transfection Cat.N. 101-10N) and incubated with cells according to the manufacturer’s instructions.
(§2) After treatment supernatants were discarded, cells were washed with PBS and lysed with passive lysis buffer (Promega Cat.N. E1941). Luciferase and Renilla activity on cell lysates were quantified on a BioTek Synergy HT microplate reader using home-made luciferase reagent (20 mM Tricine, 2.67 mM MgSO4·7H2O, 0.265 mM (MgCO3)4Mg(OH)2·5H2O, 0.1 mM EDTA, 33.3 mM DTT, 530 μM ATP, 270 μM Acetyl Coenzyme A (Lithium salt), 470 μM luciferin (Biosynth), pH 7.8, diluted two times in water before use), or coelenterazine (Biosynth) dissolved in ethanol at 1 mg/mL and diluted 500 times in PBS before use as previously described. Firefly and Renilla luciferase activity on cell lysates were normalized, and data were expressed as fold induction as compared to unstimulated conditions.
In contrast to C16:0 and C18:0, C14:0 CL acted as an agonist in murine but not human cells (Fig. 3), a property similar to that of the LPS variant lipid IVa. to establish whether C14:0, like lipid IVa, is a weak human TLR4 antagonist, we tested the ability of all saturated CLs to inhibit signaling induced by LPS over a range of concentrations. For each CL, cells transfected with human TLR4/MD2/CD14 were pre-incubated with medium alone or two different CL concentrations for 1 h, and then washed and incubated for 6 h with increasing amounts of LPS (from 0 to 1000 ng/mL). […] The dose–response curve of LPS was shifted to the right.
(§3) Fig. 6 C14:0 is a competitive human TLR4 antagonist. HEK293 cells were transfected with plasmids encoding hTLR4, hMD2, and hCD14 together with a luciferase reporter plasmid dependent on NF-κB activation and a constitutively active reporter vector-encoding renilla luciferase. Two days after transfection, cells were incubated for 1 h with medium alone or the indicated amount of CLs, then washed and incubated 6 h with increasing amount of LPS. Luciferase and renilla were then quantified in cell lysate, and normalized and reported here as fold induction as compared to control. Each bar represents the mean ± standard deviation of three biological replicates (n = 3). Graphs are representative of at least three independent experiments
as §3, with “7 Unsaturated cardiolipins are” for “6 C14:0 is a”, “antagonists.” for “antagonist.”, “CLs, and” for “CLs,”
To quantify and compare the potency of CLs as inhibitors, we determined IC50 values in HEK293 cells transfected with human TLR4/MD2/CD14, for each of the antagonists (Fig. 8 and Table 1). […]

immortalized BMDMs = assay: TNF-α secretion in immortalized BMDMs (WT or TLR4-KO) incubated with CL or LPS; type: cell-based, murine; details: CL alone, overnight, immortalized BMDM
Method: Immortalized BMDM were seeded the day before the experiment at 5 × 10^5 cells/mL in 48-well plates (500 μL/well).
After stimulation, supernatants were collected, centrifuged, and assayed for cytokine secretion, while cells were assayed for viability.
TNF-α and IP-10 were quantified in cell supernatants using DuoSet ELISA kits from R&D Systems and human IL-1β using Instant ELISA™ Kit from Invitrogen, according to the manufacturer’s instructions. Absorbance was read with a BioTek Synergy HT Microplate Readers.
(§4) Fig. 3 Saturated but not unsaturated CLs have pro-inflammatory properties. a RAW-Blue™ cells were incubated overnight with the indicated amount of CL or LPS, supernatants were collected, and NF-κB activation quantified via Quanti-Blue™ test and reported here as fold induction as compared to control. Unpaired t test: differences with respect to the control (Ctrl) are not significant if p > 0.05 (no symbol); *p ≤ 0.0007. b Immortalized BMDM cells were incubated overnight with the indicated amount of CL or LPS; supernatants were collected and TNF-α quantified via ELISA assay. c, d Primary human monocytes were incubated overnight with the indicated amount of CL or LPS with or without the NLRP3 inhibitor MCC950, supernatants were collected, and TNF-α and IL-1β were quantified via ELISA assay. Graphs are representative of experiments from six different donors. Unpaired t test: differences with respect to the control (Ctrl) are not significant if p > 0.05 (no symbol); *p ≤ 0.021. Each bar represents the mean + standard deviation of three biological replicates (n = 3). Graphs are representative of at least three independent experiments
(§5) Fig. 4 Saturated CLs are TLR4 agonists. a HEK293 cells were transfected with plasmids encoding murine TLR4, MD2, and CD14 (mTLR4), human TLR4, MD2, and CD14 (hTLR4) or with empty pcDNA3.1 plasmid, MD2 and CD14 (w/o TLR) together with a luciferase reporter plasmid dependent on NF-κB activation and a constitutively active reporter vector-encoding renilla luciferase. Two days after transfection, cells were incubated for 6 h with medium alone (Ctrl) or the indicated amount of CLs or LPS. Luciferase and renilla were quantified in cell lysate, normalized and reported here as fold induction as compared to control. Unpaired t test: differences compared to the control are not significant if p > 0.05(no symbol); *p ≤ 0.005. b WT and TLR4-KO iBMDM cells were incubated overnight with medium (c), LPS or C14:0 CL. For each condition, mTNF-α was measured by ELISA assay. Unpaired t test: differences with respect to the control are not significant if p > 0.05(no symbol); *p ≤ 0.0001. Each bar represents the mean + standard deviation of three biological replicates (n = 3). Graphs are representative of at least three independent experiments

RAW-Blue cells = assay: NF-κB activation (SEAP, Quanti-Blue) by CL or LPS in RAW-Blue cells; type: cell-based, murine; details: CL alone, overnight
Method: RAW-Blue™ cells were seeded the day before the experiment at 5 × 10^5 cells/mL in 48-well plates (500 μL/well).
These cells express a secreted embryonic alkaline phosphatase (SEAP) when NF-κB is activated. NF-κB activation was measured by measuring the alkaline phosphatase produced by RAW-Blue™ cells using the Quanti-Blue™ reagent (InvivoGen), according to the manufacturer’s instructions.
as §4

[1] = target: T2, human TLR4, MD2, and CD14 (Homo sapiens, UniProt O00206+Q9Y6Y9); assay: NF-κB luciferase reporter activation by CLs in HEK293 cells transfected with human TLR4, MD2 and CD14; type: cell-based
T2 construct: expressed in transfected cells; host or cells: HEK293 (ATCC CRL1573), transient transfection with jetPEI
Method: as §1, §2
The first signaling event of these pathways is NF-κB activation through TLR4 activation. To investigate how the individual CD14, TLR4, and MD2 proteins contribute to the responses of cells to CL, we used the HEK transfection model where we can control which protein (including from different species) may be added to the cells and their contribution to CL activation of Nf-κB [21, 30, 31]. We transfected HEK293 cells with human or murine CD14 and MD2 with or without TLR4 and incubated them with saturated CLs for 6 h (Fig. 4a). All three saturated CLs activated murine TLR4. By contrast, only C16:0 and C18:0 activated the human receptor. To further confirm the role of TLR4, we compared TNF-α secretion induced by C14:0 CL in wild-type (WT) or TLR4 knock out (TLR4 KO) immortalized BMDMs. Both LPS and C14:0 CL induced TNF-α secretion in WT but not in TLR4-KO BMDMs (Fig. 4b). TLR4-KO BMDMs were normally responsive to TLR2 ligand Pam3CSK4 (data not shown).
as §5, with “Graphs are representative of at least three independent experiments” left out

[2] = HEK293 hTLR4/hMD2/hCD14, 1 h CL, washed, 6 h LPS, Prism fit of Fig. 8 data

T1 sequence (O00206 24-839): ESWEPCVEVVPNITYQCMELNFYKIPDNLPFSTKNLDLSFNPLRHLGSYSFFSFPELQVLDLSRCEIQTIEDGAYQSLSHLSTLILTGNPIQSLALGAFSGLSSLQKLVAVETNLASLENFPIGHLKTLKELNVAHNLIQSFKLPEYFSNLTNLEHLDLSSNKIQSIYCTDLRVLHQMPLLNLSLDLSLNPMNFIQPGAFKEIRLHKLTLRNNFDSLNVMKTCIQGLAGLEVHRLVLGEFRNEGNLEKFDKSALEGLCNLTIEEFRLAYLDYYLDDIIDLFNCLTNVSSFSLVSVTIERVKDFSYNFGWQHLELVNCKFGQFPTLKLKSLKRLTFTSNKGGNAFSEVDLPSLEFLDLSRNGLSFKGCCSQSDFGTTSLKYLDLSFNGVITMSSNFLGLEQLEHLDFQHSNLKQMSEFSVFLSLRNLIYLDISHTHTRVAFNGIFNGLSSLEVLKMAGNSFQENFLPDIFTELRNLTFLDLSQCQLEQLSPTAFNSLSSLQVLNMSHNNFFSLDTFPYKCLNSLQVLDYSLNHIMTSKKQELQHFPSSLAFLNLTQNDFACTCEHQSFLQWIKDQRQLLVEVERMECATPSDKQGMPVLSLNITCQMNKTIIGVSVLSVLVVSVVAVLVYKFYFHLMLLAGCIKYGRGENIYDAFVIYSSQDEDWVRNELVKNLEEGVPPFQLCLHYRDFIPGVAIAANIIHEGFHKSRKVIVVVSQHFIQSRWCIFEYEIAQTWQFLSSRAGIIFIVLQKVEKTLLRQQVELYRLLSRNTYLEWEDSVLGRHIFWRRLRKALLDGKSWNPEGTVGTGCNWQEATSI
T1 sequence (Q9Y6Y9 19-160): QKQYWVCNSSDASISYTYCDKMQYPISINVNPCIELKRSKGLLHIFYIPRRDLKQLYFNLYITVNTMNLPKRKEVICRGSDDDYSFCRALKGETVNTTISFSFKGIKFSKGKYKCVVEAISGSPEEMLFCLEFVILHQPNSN
T2 sequence (O00206 24-839): as the sequence (O00206 24-839) above
T2 sequence (Q9Y6Y9 19-160): as the sequence (Q9Y6Y9 19-160) above

| inhibition of LPS-induced signaling (LPS dose-response, 0 to 1000 ng/mL), mode of action (human TLR4/MD2/CD14; washed, 6 h LPS) | pIC50 (human TLR4/MD2/CD14; [2]) | pIC50 (human TLR4/MD2/CD14; HEK293 human TLR4/MD2/CD14) | difference in potency between C14:1 and C18:1 (human TLR4/MD2/CD14; ratio of IC50 values, Table 1) [fold] | activation of human TLR4 (NF-κB) ([1]; 6 h incubation) | NF-κB induction in HEK293 cells transfected with TLR4 in the absence of CD14 or MD2 ([1]; hTLR4 without CD14 or without MD2, 6 h) | Compound | TNF-α secretion (immortalized BMDMs) | NF-κB activation (RAW-Blue cells) |
| --- | --- | --- | --- | --- | --- | --- | --- | --- |
| competitive TLR4 antagonists | 7.11 | 7.11 | 400 | – | – | CCCC/C=C\CCCCCCCC(=O)OC[C@H](COP(=O)(O)OCC(O)COP(=O)(O)OC[C@@H](COC(=O)CCCCCCC/C=C\CCCC)OC(=O)CCCCCCC/C=C\CCCC)OC(=O)CCCCCCC/C=C\CCCC (stereo partly shown) [C14:1 CL] | not | not |
| competitive TLR4 antagonists | 6.03 | – | – | – | – | CCCCCC/C=C\CCCCCCCC(=O)OC[C@H](COP(=O)(O)OCC(O)COP(=O)(O)OC[C@@H](COC(=O)CCCCCCC/C=C\CCCCCC)OC(=O)CCCCCCC/C=C\CCCCCC)OC(=O)CCCCCCC/C=C\CCCCCC (stereo partly shown) [C16:1 CL] | not | not |
| competitive TLR4 antagonists | 4.47 | – | – | – | – | CCCCCCCC/C=C\CCCCCCCC(=O)OC[C@H](COP(=O)(O)OCC(O)COP(=O)(O)OC[C@@H](COC(=O)CCCCCCC/C=C\CCCCCCCC)OC(=O)CCCCCCC/C=C\CCCCCCCC)OC(=O)CCCCCCC/C=C\CCCCCCCC (stereo partly shown) [C18:1 CL] | not | not |
| did not inhibit | – | – | – | activated | not induced | CCCCCCCCCCCCCCCC(=O)OC[C@H](COP(=O)(O)OCC(O)COP(=O)(O)OC[C@@H](COC(=O)CCCCCCCCCCCCCCC)OC(=O)CCCCCCCCCCCCCCC)OC(=O)CCCCCCCCCCCCCCC (stereo partly shown) [C16:0 CL] | induced | induced |
